Results: PMC5412686 (Biopharmaceutics & Drug Disposition, 2017)
Like-named read-outs stand apart in the source and are kept apart here.

Experiments:
[1] = cited from earlier work
[2] = Humans, cited from earlier work; for CL: i.v.; for CL / Vss / F: ref Supplemental Table S2; for F: oral bioavailability; for Urinary excretion (f e): excreted unchanged in urine, ref Supplemental Table S1
[3] = ref Supplemental Table S1, cited from earlier work; for HBD: number of hydrogen bond donors; for PSA: polar surface area; for log D: octanol/water at pH 7.4
[4] = cited from earlier work; for CL: Rats, i.v., ref Supplemental Table S2; for F: rat, in vivo, po
[5] = Intrinsic metabolic clearance determined in human liver microsomes; format: in vitro ADME; details: pH 7.4
[6] = system: Caco‐2 cells (TC7 clone); details: Equation 11 from measured P‐Caco2
[7] = human, Caco-2, pH 7.4, with cyclosporine A 10 μM
[8] = no medium marked (buffer pH 7.4), ref Supplemental Table S1

What does the source list for `COc1ccc([C@@H]2Sc3ccccc3N(CCN(C)C)C(=O)[C@@H]2OC(C)=O)cc1` [Diltiazem]?
Solubility (Biorelevant media or Buffer, pH 7.4) [1, 8]: 0.47 mg/ml; CL [2]: 48.3 L/h; Vss [2]: 5.2 L/kg; HBD [3]: 0; PSA [3]: 56.5; Base pKa [3]: 8.1; CL [4]: 42 mL/min/kg; F [4]: 0.06; microsomal CLint at 1 μM [5]: 35 µL/min/mg

With `CC[C@H]1OC(=O)[C@H](C)[C@@H](O[C@H]2C[C@@](C)(OC)[C@@H](O)[C@H](C)O2)[C@H](C)[C@@H](O[C@@H]2O[C@H](C)C[C@H](N(C)C)[C@H]2O)[C@](C)(O)C[C@@H](C)C(=O)[C@H](C)[C@@H](O)[C@]1(C)O` [Erythromycin] as the compound, how does the “Solubility (Biorelevant media or Buffer, pH 7.4)” value (“Solubility” below) [1, 8] read?
Its value is 2 mg/ml.

And the CL [2]?
The CL was 18.73 L/h.

What about the F [2] of the same compound?
Its F is 0.21.

What about the Vss [2] of the same compound?
The Vss was 0.60 L/kg.

What about the HBD [3] of the same compound?
Its HBD is 5.

What about the “log D” value [3] of the same compound?
Its value is 1.16.

What about the PSA [3] of the same compound?
The PSA was 203.3.

And the CL [4]?
Its CL is 105 mL/min/kg.

What about the F [4] of the same compound?
Its F is 0.14.

Which results are given for `COCCc1ccc(OCC(O)CNC(C)C)cc1` (centres unmarked) [Metoprolol]?
Solubility (Biorelevant media or Buffer, pH 7.4) ([1]; FaHIF, fasted human intestinal fluid): 299.8 (FaHIF) mg/ml; CL [2]: 65.34 L/h; Vss [2]: 5.18 L/kg; HBD [3]: 2; log D [3]: 0.16; PSA [3]: 55.0; CL [4]: 65.2 mL/min/kg; microsomal CLint at 1 μM [5]: 19 µL/min/mg

Which “Calculated P eff from P‐Caco2” value [6] does the source give for `CN1CCN2c3ncccc3Cc3ccccc3C2C1` (centres unmarked) [Mirtazapine] here?
Its value is 4.0 10^−4 cm/s.

What about the Papp at 2 h, 1 μM [7] of the same compound?
Its Papp at 2 h, 1 μM is 33.2 ×10⁻⁶ cm/s.

What about the “Solubility” value [1, 8] of the same compound?
The value was 0.002 mg/ml.

What about the CL [2] of the same compound?
Its CL is 38.3 L/h.

What about the F [2] of the same compound?
The F was 0.4.

What about the Vss [2] of the same compound?
Its Vss is 3.52 L/kg.

What about the HBD [3] of the same compound?
Its HBD is 0.

And the “log D” value [3]?
Its value is 0.28.

What about the PSA [3] of the same compound?
The PSA was 12.3.

What about the CL [4] of the same compound?
Its CL is 29.4 mL/min/kg.

And the F [4]?
The F was 0.07.

What about the microsomal CLint at 1 μM [5] of the same compound?
Its microsomal CLint at 1 μM is 11 µL/min/mg.

Which “Calculated P eff from P‐Caco2” value [6] does the source give for `Oc1ccc2c3c1O[C@H]1[C@@H](O)CC[C@@]4(O)[C@@H](C2)N(CC2CCC2)CC[C@]314` [Nalbuphine] here?
The value was 3.8 10^−4 cm/s.

What about the Papp at 2 h, 1 μM [7] of the same compound?
The Papp at 2 h, 1 μM was 29.8 ×10⁻⁶ cm/s.

What about the “Solubility” value [1, 8] of the same compound?
Its value is 35.5 mg/ml.

What about the CL [2] of the same compound?
Its CL is 90 L/h.

And the Vss [2]?
The Vss was 4.63 L/kg.

And the HBD [3]?
The HBD was 3.

What about the “log D” value [3] of the same compound?
Its value is 0.81.

And the PSA [3]?
The PSA was 78.3.

And the “Base pKa” value [3]?
Its value is 10.0.

What about the CL [4] of the same compound?
Its CL is 63 mL/min/kg.

What about the microsomal CLint at 1 μM [5] of the same compound?
Its microsomal CLint at 1 μM is less than 10 µL/min/mg.

For `COC(=O)C1=C(C)NC(C)=C(C(=O)OC)C1c1ccccc1[N+](=O)[O-]` [Nifedipine], which “Urinary excretion (f e)” value [2] is on record?
Its value is 0 % of dose.

What does the source list for `COCCOC(=O)C1=C(C)NC(C)=C(C(=O)OC(C)C)C1c1cccc([N+](=O)[O-])c1` (centres unmarked) [Nimodipine]?
Calculated P eff from P‐Caco2 [6]: 3.3 10^−4 cm/s; Papp at 2 h, 1 μM [7]: 22.2 ×10⁻⁶ cm/s; Solubility (Biorelevant media or Buffer, pH 7.4) [1, 8]: 0.024 mg/ml; CL [2]: 58.8 L/h; F [2]: 0.33; Vss [2]: 0.94 L/kg; HBD [3]: 1; log D [3]: 2.86; PSA [3]: 121.6; CL [4]: 1.5 mL/min/kg; F [4]: 0.22; microsomal CLint at 1 μM [5]: > 1000 µL/min/mg

With `COc1ccc(C(CN(C)C)C2(O)CCCCC2)cc1` (centres unmarked) [Venlafaxine] as the compound, how does the “Calculated P eff from P‐Caco2” value [6] read?
The value was 4.0 10^−4 cm/s.

What about the Papp at 2 h, 1 μM [7] of the same compound?
Its Papp at 2 h, 1 μM is 33.2 ×10⁻⁶ cm/s.

What about the “Urinary excretion (f e)” value [2] of the same compound?
The value was 4.6 % of dose.

And the CL [2]?
The CL was 60.35 L/h.

What about the F [2] of the same compound?
Its F is 0.37.

And the HBD [3]?
The HBD was 1.

And the “log D” value [3]?
The value was 0.76.

And the PSA [3]?
Its PSA is 32.8.

And the CL [4]?
Its CL is 64.5 mL/min/kg.

And the F [4]?
The F was 0.13.

And the microsomal CLint at 1 μM [5]?
Its microsomal CLint at 1 μM is less than 10 µL/min/mg.

For `COc1ccc(CCN(C)CCCC(C#N)(c2ccc(OC)c(OC)c2)C(C)C)cc1OC` (centres unmarked) [Verapamil], which HBD [3] is on record?
Its HBD is 0.

What about the PSA [3] of the same compound?
The PSA was 56.3.

With `CN(C)CCc1c[nH]c2ccc(C[C@H]3COC(=O)N3)cc12` [Zolmitriptan] as the compound, how does the “Solubility” value [1, 8] read?
Its value is 20 mg/ml.

And the “Urinary excretion (f e)” value [2]?
Its value is 8 % of dose.

What about the CL [2] of the same compound?
The CL was 43.06 L/h.

And the F [2]?
The F was 0.7.

What about the HBD [3] of the same compound?
The HBD was 2.

What about the PSA [3] of the same compound?
Its PSA is 56.8.

And the CL [4]?
The CL was 29.4 mL/min/kg.

What about the F [4] of the same compound?
The F was 0.41.
